Data on three molecules can be found in US6602710B1, “Screening method for SREBP pathway-specific inhibitors” (Chugai Seiyaku Kabushiki Kaisha, priority 1998, dated 2003).

Molecules are shown by their SMILES.

In one data set the test system is CHO-K1 cells. Kind of data set: amphotericin B cytotoxicity assay (cholesterol synthesis activity) in CHO-K1 cells. The class given is cell-based, Chinese hamster. As to conditions: 0.1 μg/ml 25-hydroxycholesterol, 24 hours, FIG. 4.
Another data set has as its system DM7 cells. Kind of data set: amphotericin B cytotoxicity assay in DM7 cells. The data set is classed as cell-based, Chinese hamster. Conditions: compared with 25RA, amphotericin B in PBS, 4 hours, FIG. 3.
The next data set concerns 25RA cells. As to conditions: amphotericin B at various concentrations in PBS, 4 hours, FIG. 3.
In data set [1] the test system is LDL receptor activity of CHO-K1 cells. Kind of data set: 125I-LDL binding assay (LDL receptor activity) in CHO-K1 cells. As to conditions: simvastatin + (1 μM), sterols −, 24 hours. The data set is classed as cell-based, Chinese hamster. The method, then:
(§1) In order to measure LDL receptor activity, the examples of the present invention use the ^125I-LDL binding assay. However, other suitable means may include incorporation of LDL labeled with a fluorescent lipid DiI into cells or ELISA-mediated measurement of the amount of LDL receptors expressed on the surface of cell membranes, and the screening system of the present invention is not specifically limited to those shown herein.
(§2) On day 0, cells were seeded on 6-well plates at a density of 3×10^4 cells/well, and incubated in F-F12. […] On day 4, the cells were incubated at 4° C. for 2 hours, and then washed twice with PBS. Then, incubation was continued at 4° C. in L-F12 (containing 10 mM Hepes-NaOH, pH 7.4) containing 10 μg/ml ^125I-LDL or 10 μg/ml ^125I-LDL and 400 μg/ml LDL. After 5 hours, the cells were washed with buffer B (150 mM NaCl, 50 mM Tris-HCl, 2 mg/ml BSA, pH 7.4), then buffer C (150 mM NaCl, 50 mM Tris-HCl, pH 7.4) each three times, and incubated with 1 ml of buffer D (50 mM NaCl, 10 mM Hepes-NaOH, 4 mg/ml dextran sulfate, pH 7.4) at 4° C. After one hour, buffer D was recovered and assayed for its radioactivity. The protein level in cells remaining in wells was measured by the BCA method to calculate ^125I-LDL binding per mg of […].

Data set [2] relates to LDL receptor activity of 25RA cells. Kind of data set: 125I-LDL binding assay (LDL receptor activity) in 25RA cells. The class given is cell-based, Chinese hamster. As to conditions: simvastatin + (1 μM), sterols −, 24 hours. The method, then: as §1, §2

For the molecule `C[C@H](CCCC(C)(C)O)[C@H]1CC[C@H]2[C@@H]3CC=C4C[C@@H](O)CC[C@]4(C)[C@H]3CC[C@]12C` [25-hydroxycholesterol], the “cholesterol synthesis activity (amphotericin B cytotoxicity assay)” value in the data set on CHO-K1 cells is “inhibited cholesterol synthesis activity”.

On to `C[C@@H]1[C@H](O)[C@@H](C)/C=C/C=C/C=C/C=C/C=C/C=C/C=C/[C@H](O[C@@H]2O[C@H](C)[C@@H](O)[C@H](N)[C@@H]2O)C[C@@H]2O[C@](O)(C[C@@H](O)C[C@@H](O)[C@H](O)CC[C@@H](O)C[C@@H](O)CC(=O)O[C@H]1C)C[C@H](O)[C@H]2C(=O)O` [amphotericin B], for which the figures for the “survival of cells treated with amphotericin B” value in the data set with DM7 cells and with 25RA cells were “remarkable resistance” and “decreased depending on the concentration”, respectively.

For `CCC(C)(C)C(=O)O[C@H]1C[C@@H](C)C=C2C=C[C@H](C)[C@H](CC[C@@H]3C[C@@H](O)CC(=O)O3)[C@H]21` [simvastatin], the results for the “Cell surface binding of [125I]LDL” value in data set [1] and in data set [2] were 30.1 ng/mg protein and 20.9 ng/mg protein, respectively.
